# Assay results published in ChEMBL document CHEMBL3414502, “Identification of protein kinase CK2 inhibitors using solvent dipole ordering virtual screening” (Eur J Med Chem, 2015).
# The source made the active and inactive calls. The rule behind the calls is not given here.
# Biological target: Casein kinase II (Homo sapiens, UniProt P19784+P67870+P68400)
# Assay: Inhibition of CK2 kinase (unknown origin) using RRRDDDSDDD as substrate after 10 mins by topcount analysis in presence of [gamma-32P]ATP and 90 uM ATP
# Assay type: protein-complex assay
row,Structure (SMILES),IC50
1,COc1ccc(-c2nc(C(N)=O)c3[nH]c(=O)n(-c4ccc(OC)c(OC)c4)c3n2)cc1,50 µM
2,Nc1nc2ccc(NC(=S)NC(=O)c3cccs3)cc2s1,25.1 µM
3,Cc1nn(C)cc1-c1cc(-c2nnc(Nc3ccn(Cc4ccccc4Cl)n3)s2)no1,3.7 µM
4,O=c1cc(-c2ccc(O)cc2)oc2c1ccc1ccccc12,9.7 µM
5,COc1cc(/C=C2/C(=O)NN(c3ccc(C)c(Cl)c3)C2=O)ccc1OCC(=O)O,28.9 µM
6,O=C1OC(c2sc3ccccc3c2Cl)=N/C1=C/c1ccc(C(=O)O)cc1,6 µM
7,O=C(COC(=O)c1cc(Br)c(Br)s1)Nc1ccc2[nH]c(=O)[nH]c2c1,15.2 µM
8,NC(=O)c1nc(-c2ccncc2)nc2c1[nH]c(=O)n2-c1ccc2c(c1)OCO2,19.6 µM
9,COc1ccc(-c2nc3c(sc4nc(C(F)F)cc(C)c43)c(=O)[nH]2)cc1Cn1cc([N+](=O)[O-])cn1,7.7 µM
10,O=c1[nH]nc(-c2ccco2)c2cn(-c3cccc([N+](=O)[O-])c3)nc12,46.3 µM
11,O=C(COC(=O)c1c[nH]c2ccccc12)Nc1ccc2[nH]c(=O)[nH]c2c1,28.5 µM
12,COc1ccc(/C=C2\Oc3cc(OCC(=O)O)ccc3C2=O)cc1OC,6 µM
13,Nc1nnc(-c2ccc(C(=O)O)cc2)s1,27.4 µM
14,CC(C)(C)c1ccc(C2=N/C(=C/c3ccc(C(=O)O)cc3)C(=O)O2)cc1,13.2 µM
15,O=c1oc2ccc([N+](=O)[O-])cc2cc1-c1csc(Nc2ccccc2)n1,8.6 µM
16,Cc1cc(Br)c(N2C(=O)NC(=O)C(/C=N/c3ccc(C(=O)O)c(O)c3)C2=O)cc1C (stereo unspecified),28.6 µM
17,CCOc1cc(-c2nc3c(cnn3-c3ccccc3)c(=O)[nH]2)ccc1O,39.9 µM
18,O=c1[nH]c(-c2ccc(OCc3ccccc3)cc2)nc2c1cnn2-c1ccccc1,11.1 µM
19,O=C(O)COc1ccc2c(c1)O/C(=C\c1ccco1)C2=O,11 µM
20,CCC(=O)Nc1nnc(-c2ccc([N+](=O)[O-])cc2)s1,27.9 µM
21,CCOc1ccc(C2=N/C(=C/c3ccc(C(=O)O)cc3)C(=O)O2)cc1,43 µM
22,O=c1[nH]n2c(=O)c3c([nH]c2c1/N=N/c1ccccc1Cl)CCC3,3.8 µM
23,COc1cccc(NC(=O)Nc2nnc(-c3ccc([N+](=O)[O-])cc3)s2)c1,7.6 µM
24,O=C1OC(c2ccc(-c3ccccc3)cc2)=N/C1=C/c1ccc(C(=O)O)cc1,13.9 µM

# Biological target: Casein kinase II (Homo sapiens) (UniProt P67870+P68400+P19784)
# Assay: Competitive inhibition of CK2 kinase (unknown origin) by Lineweaver-Burk plot analysis in presence of ATP
# Assay type: protein-complex assay
row,Structure (SMILES),competitive inhibition (qualitative)
1,Cc1nn(C)cc1-c1cc(-c2nnc(Nc3ccn(Cc4ccccc4Cl)n3)s2)no1,Active
2,O=c1cc(-c2ccc(O)cc2)oc2c1ccc1ccccc12,Active
3,COc1ccc(-c2nc3c(sc4nc(C(F)F)cc(C)c43)c(=O)[nH]2)cc1Cn1cc([N+](=O)[O-])cn1,Active
4,COc1ccc(/C=C2\Oc3cc(OCC(=O)O)ccc3C2=O)cc1OC,Active
5,O=c1oc2ccc([N+](=O)[O-])cc2cc1-c1csc(Nc2ccccc2)n1,Active
6,O=c1[nH]n2c(=O)c3c([nH]c2c1/N=N/c1ccccc1Cl)CCC3,Active
7,COc1cccc(NC(=O)Nc2nnc(-c3ccc([N+](=O)[O-])cc3)s2)c1,Active
